Source: EP0415103A1, “2,3-Dihydro-1-(pyridinylamino)-indoles, a process for their preparation and their use as medicaments” (HOECHST-ROUSSEL PHARMACEUTICALS INCORPORATED, priority 1989, dated 1991)

Assays:
[1] = test system: phenyl-para-quinone induced writhing; assay: phenyl-para-quinone writhing assay (analgesia); format: in vivo, mice; details: for % Inhibition of Writhing: 20 mg/kg s.c., mice
extensor tonus = assay: supramaximal electroshock (SES) assay (anticonvulsant activity); format: in vivo, male mouse; details: 30 minute pretreat, normalized relative to vehicle control
Description: The compounds of the invention are also useful as anticonvulsants due to their anticonvulsant activity in mammals. Anticonvulsant activity is measured in the male mouse using the supramaximal electroshock (SES) assay described in Arch. Int. Pharmacodyn. 92:97-107, 1952. In this procedure, groups of male mice are used. Drugs are prepared using distilled water and, if insoluble, a surfactant is added. Control animals receive vehicle. Drugs are routinely administered interperitoneally (i.p.). The dosage volume is 10 ml/kg. A primary screen is given a 30 minute pretreat. The animals' eyes are placed across the output terminals of an A.C. shocker that delivers 206 volts rms for 300 msec. Electrode paste coats the animals' eyes at the point of contact with the terminals. […] Protection is expressed as normalized percent inhibition relative to vehicle control.

[2] = test system: Scopolamine Induced Memory Deficit; assay: Dark Avoidance Assay (reversal of scopolamine-induced memory deficit); format: in vivo; details: mice, retest after 24 hours
Description: In this assay, mice are tested for their ability to remember an unpleasant stimulus for a period of 24 hours. A mouse is placed in a chamber that contains a dark compartment; a strong incandescent light drives it to the dark compartment, where an electric shock is administered through metal plates on the floor. The animal is removed from the testing apparatus and tested again, 24 hours later, for the ability to remember the electric shock. If scopolamine, an anticholinergic that is known to cause memory impairment, is administered before an animal's initial exposure to the test chambers, the animal re-enters the dark compartment shortly after being placed in the test chamber 24 hours later. The effect of scopolamine is blocked by an active test compound, resulting in a greater interval before re-entry into the dark compartment. The results for an active compound are expressed as the percent of a group of animals in which the effect of scopolamine is blocked, as manifested by an increased interval between being placed in the test chamber and re-entering the dark compartment. The activity of some of the compounds of the instant invention in the assay are given below in Table 2.

SMILES: CCCN(c1ccncc1)N1CCc2ccccc21.O=C(O)C(=O)O [2,3-Dihydro-N-propyl-N-(4-pyridinyl)-1H-indol-1-amine oxalate]
- % Inhibition of Writhing [1]: 100% at 20 mg/kg
- % Inhibition (extensor tonus; 10 mg/kg i.p.): -40% at 10 mg/kg i.p.

SMILES: CC[C@@H]1C(=O)OC[C@@H]1Cc1cncn1C [Pilocarpine]
- % of Animals With Scopolamine Induced Memory Deficit Reversal ([2]; 1.25 mg/kg s.c): 19%

SMILES: c1ccc2c(c1)CCN2Nc1ccncc1 [2,3-Dihydro-N-(4-pyridinyl)-1H-indol-1-amine]
- % of Animals With Scopolamine Induced Memory Deficit Reversal ([2]; 0.3 mg/kg s.c.): 53%
- % Inhibition of Writhing [1]: 74% at 20 mg/kg
- % Inhibition (extensor tonus; 15 mg/kg i.p.): -40% at 15 mg/kg i.p.

SMILES: CCC1(c2ccccc2)C(=O)NC(=O)NC1=O [Phenobarbital, reference compound]
- % Inhibition (extensor tonus; 8.4 mg/kg i.p.): -50% at 8.4 mg/kg

SMILES: CC(=O)Oc1ccccc1C(=O)O [Aspirin, reference compound]
- ED50 ([1]; Mus musculus, sc, read-out: ED₅₀ (subcutaneous dose at which 50% of the phenyl-para-quinone induced writhing is inhibited)): 32.8 mg/kg

SMILES: Nc1c2c(nc3ccccc13)CCCC2 [Tacrine]
- % of Animals With Scopolamine Induced Memory Deficit Reversal ([2]; 0.63 mg/kg s.c): 13%
